These results are taken from article PMC6104695 (Virulence, 2017).

In brackets after ≈: the same amount, converted by molar mass. Several values for one entry are separate records, joined by “and”; a condition that tells them apart may be missing. Equal values may be shown once. Ends that are not written are not given here. Peptide text beside a SMILES is read from it. Where only a bound is given, the exact number is not on record here.

The test system of assay [1] is B. anthracis Sterne spores. Also noted: species or system Galleria mellonella. To be noted: in vivo.
Assay [2] concerns B. anthracis Sterne spores. Briefly: microbe, parasite or virus in culture. To be noted: Bacillus anthracis, 3 h, pH 7.4, read-out: Sporicidal EC50 (95% Confidence Interval).
Assay [3] deals with B. anthracis Sterne vegetative bacteria. Conditions: 24 h.
A further assay has as its system B. anthracis. To be noted: mouse, in vivo, sc; cited from earlier work.

As usually defined, the EC50 is the concentration that produces a half-maximal response. Take `O=C(O)c1cn(C2CC2)c2cc(N3CCNCC3)c(F)cc2c1=O` [Ciprofloxacin]: in assay [1], the “Rescue of infected waxworms by ciprofloxacin” value worked out at 100% and the “Survival (%) of B. anthracis infected G. mellonella larvae” value turned out to be 100%. Also, the EC50 in assay [2] is 70.8 µg/mL and > 100 µM. The term MIC denotes the lowest concentration found to suppress growth. A higher MIC goes with a need for much substance. In the case of “GLLRKGGEKIGEKLKKIGQKIKNFFQKLVPQPEQ [mCRAMP]”, the MIC in assay [3] is on record as 16.5 µM. In turn, `CC(C)C[C@H](NC(=O)[C@H](CCCNC(=N)N)NC(=O)CNC(=O)CNC(=O)[C@@H](N)CCCNC(=N)N)C(=O)N[C@@H](CS)C(=O)N[C@@H](Cc1ccc(O)cc1)C(=O)N[C@@H](CS)C(=O)N[C@@H](CCCNC(=N)N)C(=O)N[C@@H](CCCNC(=N)N)C(=O)N[C@@H](CCCNC(=N)N)C(=O)N[C@@H](Cc1ccccc1)C(=O)N[C@@H](CS)C(=O)N[C@H](C(=O)N[C@@H](CS)C(=O)N[C@H](C(=O)NCC(=O)N[C@@H](CCCNC(=N)N)C(=O)O)C(C)C)C(C)C` [PG-1] (H-RGGRLCYCRRRFCVCVGR-OH; N-terminus and C-terminus assumed) came in with an MIC in assay [3] of 7.41 µM (≈ 16 µg/mL). In addition, the “Survival of infected mice” value in the assay with B. anthracis is 80%. On to `CC[C@H](C)[C@H](NC(=O)[C@H](CCCCN)NC(=O)[C@H](CCC(=O)O)NC(=O)[C@H](CCCCN)NC(=O)[C@H](CO)NC(=O)[C@H](CCCCN)NC(=O)[C@H](CCCNC(=N)N)NC(=O)[C@H](Cc1ccccc1)NC(=O)[C@H](Cc1ccccc1)NC(=O)[C@H](CC(=O)O)NC(=O)CNC(=O)[C@H](CC(C)C)NC(=O)[C@@H](N)CC(C)C)C(=O)NCC(=O)N[C@@H](CCCCN)C(=O)N[C@@H](CCC(=O)O)C(=O)N[C@@H](Cc1ccccc1)C(=O)N[C@@H](CCCCN)C(=O)N[C@@H](CCCNC(=N)N)C(=O)N[C@H](C(=O)N[C@H](C(=O)N[C@@H](CCC(N)=O)C(=O)N[C@@H](CCCNC(=N)N)C(=O)N[C@H](C(=O)N[C@@H](CCCCN)C(=O)N[C@@H](CC(=O)O)C(=O)N[C@@H](Cc1ccccc1)C(=O)N[C@@H](CC(C)C)C(=O)N[C@@H](CCCNC(=N)N)C(=O)N[C@@H](CC(N)=O)C(=O)N[C@@H](CC(C)C)C(=O)N[C@H](C(=O)N1CCC[C@H]1C(=O)N[C@@H](CCCNC(=N)N)C(=O)N[C@H](C(=O)N[C@@H](CCC(=O)O)C(=O)N[C@@H](CO)C(=O)O)[C@@H](C)O)C(C)C)[C@@H](C)CC)C(C)C)[C@@H](C)CC` [LL-37], for which the MIC in assay [3] was 7.12 µM (≈ 32 µg/mL). This counts as single-digit micromolar. Consider “GLKLRFEFSKIKGEFLKTPEVRFRDIKLKDNRISVQR [Scrambled LL-37]”, for which the MIC in assay [3] is over 150 µM.
